The values below are quoted from earlier work in patent US20030125243A1, “Synthesis of cyclic peptides” (priority 2000, published 2003).

The target in the data set is αvβ3 (Homo sapiens, UniProt P05106+P06756). Particulars: background statement, Haubner et al. 1996.
αvβ3, sequence (P06756 31-889 limits assumed): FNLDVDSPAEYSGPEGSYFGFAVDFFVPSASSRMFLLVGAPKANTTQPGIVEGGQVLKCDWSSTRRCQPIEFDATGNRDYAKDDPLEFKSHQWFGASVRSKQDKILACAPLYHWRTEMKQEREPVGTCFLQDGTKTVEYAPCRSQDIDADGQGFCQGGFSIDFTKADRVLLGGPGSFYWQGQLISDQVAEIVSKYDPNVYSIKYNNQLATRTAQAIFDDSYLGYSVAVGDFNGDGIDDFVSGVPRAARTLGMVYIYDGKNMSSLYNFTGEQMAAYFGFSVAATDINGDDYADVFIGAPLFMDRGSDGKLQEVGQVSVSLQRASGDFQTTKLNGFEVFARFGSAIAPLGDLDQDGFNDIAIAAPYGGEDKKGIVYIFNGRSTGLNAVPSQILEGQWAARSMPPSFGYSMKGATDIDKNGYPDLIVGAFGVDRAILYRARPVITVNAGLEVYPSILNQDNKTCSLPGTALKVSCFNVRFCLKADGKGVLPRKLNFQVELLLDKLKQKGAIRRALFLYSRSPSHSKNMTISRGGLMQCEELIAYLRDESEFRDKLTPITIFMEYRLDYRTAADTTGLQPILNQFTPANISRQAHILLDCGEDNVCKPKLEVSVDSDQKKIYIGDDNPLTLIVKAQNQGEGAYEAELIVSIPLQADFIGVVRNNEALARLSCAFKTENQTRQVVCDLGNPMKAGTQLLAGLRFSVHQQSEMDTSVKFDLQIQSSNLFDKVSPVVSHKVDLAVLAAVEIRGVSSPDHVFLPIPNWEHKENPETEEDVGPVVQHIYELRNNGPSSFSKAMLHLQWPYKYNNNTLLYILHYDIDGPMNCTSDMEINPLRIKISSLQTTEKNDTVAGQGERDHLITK
αvβ3, sequence (P06756 891-1048 partner limits assumed): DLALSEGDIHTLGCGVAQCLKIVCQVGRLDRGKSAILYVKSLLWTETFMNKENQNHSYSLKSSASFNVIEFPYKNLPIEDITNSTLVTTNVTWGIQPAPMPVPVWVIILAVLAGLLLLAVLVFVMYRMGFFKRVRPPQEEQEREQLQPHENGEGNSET
αvβ3, sequence (P05106 27-788): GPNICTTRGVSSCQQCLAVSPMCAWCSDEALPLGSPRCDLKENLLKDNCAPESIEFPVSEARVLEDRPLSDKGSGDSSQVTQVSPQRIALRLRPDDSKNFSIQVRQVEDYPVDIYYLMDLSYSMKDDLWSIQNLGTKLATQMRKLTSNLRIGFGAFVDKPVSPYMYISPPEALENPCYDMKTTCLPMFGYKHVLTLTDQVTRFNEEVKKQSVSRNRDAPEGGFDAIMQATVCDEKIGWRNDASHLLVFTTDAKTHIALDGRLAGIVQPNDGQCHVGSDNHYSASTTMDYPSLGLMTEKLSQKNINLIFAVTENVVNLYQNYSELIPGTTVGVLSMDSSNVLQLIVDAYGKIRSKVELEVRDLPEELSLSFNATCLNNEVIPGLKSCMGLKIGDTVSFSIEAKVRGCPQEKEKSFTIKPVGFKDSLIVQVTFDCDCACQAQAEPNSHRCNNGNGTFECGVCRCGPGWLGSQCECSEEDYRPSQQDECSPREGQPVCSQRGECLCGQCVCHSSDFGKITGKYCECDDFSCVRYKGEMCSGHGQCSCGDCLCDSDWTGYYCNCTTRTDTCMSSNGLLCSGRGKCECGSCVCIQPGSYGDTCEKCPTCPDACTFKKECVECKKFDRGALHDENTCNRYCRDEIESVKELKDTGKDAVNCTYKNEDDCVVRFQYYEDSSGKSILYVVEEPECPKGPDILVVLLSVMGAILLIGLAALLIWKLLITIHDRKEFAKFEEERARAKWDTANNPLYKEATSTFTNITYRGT

Take cRGDfK: the “binding to αvβ3 (potency and selectivity)” value is “high potency and selectivity”.
